Data from patent publication US20250230193A1, “CYCLIC COMPOUND HAVING SELECTIVE KRAS INHIBITORY EFFECT ON HRAS AND NRAS” (CHUGAI SEIYAKU KABUSHIKI KAISHA, priority 2022, published 2025).

What was measured:
[1] = biological target: GDP-bound NRAS wild-type protein (Homo sapiens, UniProt P01111); assay: Binding to NRAS by surface plasmon resonance (SPR), Single Cycle Kinetics; settings: KD ratio, GDP-bound NRAS wild-type vs GDP-bound KRAS wild-type, SPR
[2] = biological target: GDP-bound HRAS wild-type protein (Homo sapiens, UniProt P01112); assay: Binding to HRAS by surface plasmon resonance (SPR), Single Cycle Kinetics; settings: KD ratio, GDP-bound HRAS wild-type vs GDP-bound KRAS wild-type, SPR
GDP-bound HRAS wild-type protein, sequence (P01112 whole entry): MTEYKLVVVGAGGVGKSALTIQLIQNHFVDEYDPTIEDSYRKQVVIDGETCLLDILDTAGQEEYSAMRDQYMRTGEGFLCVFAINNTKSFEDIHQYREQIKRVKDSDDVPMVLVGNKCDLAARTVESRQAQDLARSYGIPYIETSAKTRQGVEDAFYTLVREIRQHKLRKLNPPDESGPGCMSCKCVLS

GDP-bound NRAS wild-type protein, sequence (P01111 whole entry): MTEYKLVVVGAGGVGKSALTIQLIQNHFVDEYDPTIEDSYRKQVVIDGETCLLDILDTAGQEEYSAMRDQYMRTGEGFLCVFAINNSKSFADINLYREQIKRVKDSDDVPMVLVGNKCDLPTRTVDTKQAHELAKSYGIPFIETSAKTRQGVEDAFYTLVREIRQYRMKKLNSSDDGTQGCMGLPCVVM

SMILES	NRAS/KRAS (ratio of KD value with respect to NRAS to KD value with respect to KRAS) [1]	HRAS/KRAS (ratio of KD value with respect to HRAS to KD value with respect to KRAS) [2]
CCO[C@@H]1C[C@H]2C(=O)NC3(CCC3)C(=O)N(C)[C@@H](C3CCCC3)C(=O)N(C)[C@H](C(=O)N(C)C)CC(=O)N(C)[C@@H](CC(F)F)C(=O)N[C@@H]([C@@H](C)CC)C(=O)N(C)CC(=O)N(C)[C@H]3C/C=C\CCN(C3=O)[C@@H](Cc3ccc(C(F)(F)F)cc3)C(=O)N(C)CC(=O)N[C@@H](CCc3cc(F)c(C(F)(F)F)c(F)c3)C(=O)N2C1 [PP1120]	A (a compound having 10 or more and less than 20 is denoted as A)	A (a compound having 10 or more and less than 20 is denoted as A)
CCO[C@@H]1C[C@H]2C(=O)NC3(CCC3)C(=O)N(C)[C@@H](C3CCCC3)C(=O)N(C)[C@H](C(=O)N(C)C)CC(=O)N(C)[C@@H](CCC(F)F)C(=O)N[C@@H]([C@@H](C)CC)C(=O)N(C)CC(=O)N(C)[C@H]3C/C=C\CCN(C3=O)[C@@H](Cc3ccc(C(F)(F)F)cc3)C(=O)N(C)CC(=O)N[C@@H](CCc3cc(F)c(C(F)(F)F)c(F)c3)C(=O)N2C1 [PP1121]	A (a compound having 10 or more and less than 20 is denoted as A)	A (a compound having 10 or more and less than 20 is denoted as A)
CCO[C@@H]1C[C@H]2C(=O)NC3(CCC3)C(=O)N(C)[C@@H](C3CCCC3)C(=O)N(C)[C@H](C(=O)N(C)C)CC(=O)N(C)[C@@H](CCC(=O)N(C)C)C(=O)N[C@@H]([C@@H](C)CC)C(=O)N(C)CC(=O)N(C)[C@H]3C/C=C\CCN(C3=O)[C@@H](Cc3ccc(C(F)(F)F)cc3)C(=O)N(C)CC(=O)N[C@@H](CCc3cc(F)c(C(F)(F)F)c(F)c3)C(=O)N2C1 [PP1122]	A (a compound having 10 or more and less than 20 is denoted as A)	B (a compound having 3 or more and less than 10 is denoted as B)
CCO[C@@H]1C[C@H]2C(=O)NC3(CCC3)C(=O)N(C)[C@@H](C3CCCC3)C(=O)N(C)[C@H](C(=O)N(C)C)CC(=O)N(C)[C@@H](Cc3cccs3)C(=O)N[C@@H]([C@@H](C)CC)C(=O)N(C)CC(=O)N(C)[C@H]3C/C=C\CCN(C3=O)[C@@H](Cc3ccc(C(F)(F)F)cc3)C(=O)N(C)CC(=O)N[C@@H](CCc3cc(F)c(C(F)(F)F)c(F)c3)C(=O)N2C1 [PP1123]	A (a compound having 10 or more and less than 20 is denoted as A)	B (a compound having 3 or more and less than 10 is denoted as B)
CCO[C@@H]1C[C@H]2C(=O)NC3(CCC3)C(=O)N(C)[C@@H](C3CCCC3)C(=O)N(C)[C@H](C(=O)N(C)C)CC(=O)N(C)[C@@H](CC(F)(F)F)C(=O)N[C@@H]([C@@H](C)CC)C(=O)N(C)CC(=O)N(C)[C@H]3C/C=C\CCN(C3=O)[C@@H](Cc3ccc(C(F)(F)F)cc3)C(=O)N(C)CC(=O)N[C@@H](CCc3cc(F)c(C(F)(F)F)c(F)c3)C(=O)N2C1 [PP1124]	A (a compound having 10 or more and less than 20 is denoted as A)	B (a compound having 3 or more and less than 10 is denoted as B)
CCO[C@@H]1C[C@H]2C(=O)NC3(CCC3)C(=O)N(C)[C@@H](C3CCCC3)C(=O)N(C)[C@H](C(=O)N(C)C)CC(=O)N(C)[C@@H](Cc3cccc(F)c3)C(=O)N[C@@H]([C@@H](C)CC)C(=O)N(C)CC(=O)N(C)[C@H]3C/C=C\CCN(C3=O)[C@@H](Cc3ccc(C(F)(F)F)cc3)C(=O)N(C)CC(=O)N[C@@H](CCc3cc(F)c(C(F)(F)F)c(F)c3)C(=O)N2C1 [PP1126]	A (a compound having 10 or more and less than 20 is denoted as A)	A (a compound having 10 or more and less than 20 is denoted as A)
CCO[C@@H]1C[C@H]2C(=O)NC3(CCC3)C(=O)N(C)[C@@H](C3CCCC3)C(=O)N(C)[C@H](C(=O)N(C)C)CC(=O)N(C)[C@@H](Cc3cccc(Cl)c3)C(=O)N[C@@H]([C@@H](C)CC)C(=O)N(C)CC(=O)N(C)[C@H]3C/C=C\CCN(C3=O)[C@@H](Cc3ccc(C(F)(F)F)cc3)C(=O)N(C)CC(=O)N[C@@H](CCc3cc(F)c(C(F)(F)F)c(F)c3)C(=O)N2C1 [PP1127]	AA (a compound having 20 or more is denoted as AA)	A (a compound having 10 or more and less than 20 is denoted as A)
CC[C@H](C)[C@@H]1NC(=O)[C@H](CC)N(C)C(=O)C[C@@H](C(=O)N(C)C)N(C)C(=O)[C@H](C2CCCC2)N(C)C(=O)C2(CCC2)NC(=O)[C@@H]2C[C@H](OC)CN2C(=O)[C@H](CCc2cc(F)c(C(F)(F)F)c(F)c2)NC(=O)CN(C)C(=O)[C@H](Cc2ccc(C(F)(F)F)cc2)N2CC/C=C\C[C@@H](C2=O)N(C)C(=O)CN(C)C1=O [PP1128]	AA (a compound having 20 or more is denoted as AA)	A (a compound having 10 or more and less than 20 is denoted as A)
CC[C@H](C)[C@@H]1NC(=O)[C@H](CC)N(C)C(=O)C[C@@H](C(=O)N(C)C)N(C)C(=O)[C@H](C2CCCC2)N(C)C(=O)C2(CCC2)NC(=O)[C@@H]2CC(F)(F)CN2C(=O)[C@H](CCc2cc(F)c(C(F)(F)F)c(F)c2)NC(=O)CN(C)C(=O)[C@H](Cc2ccc(C(F)(F)F)cc2)N2CC/C=C\C[C@@H](C2=O)N(C)C(=O)CN(C)C1=O [PP1129]	A (a compound having 10 or more and less than 20 is denoted as A)	B (a compound having 3 or more and less than 10 is denoted as B)
CC[C@H](C)[C@@H]1NC(=O)[C@H](CC)N(C)C(=O)C[C@@H](C(=O)N(C)C)N(C)C(=O)[C@H](C2CCCC2)N(C)C(=O)C2(CCC2)NC(=O)[C@@H]2C[C@@H](OC)CN2C(=O)[C@H](CCc2cc(F)c(C(F)(F)F)c(F)c2)NC(=O)CN(C)C(=O)[C@H](Cc2ccc(C(F)(F)F)cc2)N2CC/C=C\C[C@@H](C2=O)N(C)C(=O)CN(C)C1=O [PP1130]	A (a compound having 10 or more and less than 20 is denoted as A)	B (a compound having 3 or more and less than 10 is denoted as B)
CC[C@H](C)[C@@H]1NC(=O)[C@H](CC)N(C)C(=O)C[C@@H](C(=O)N(C)C)N(C)C(=O)[C@H](C2CCCC2)N(C)C(=O)C2(CCC2)NC(=O)[C@@H]2C[C@@H](F)CN2C(=O)[C@H](CCc2cc(F)c(C(F)(F)F)c(F)c2)NC(=O)CN(C)C(=O)[C@H](Cc2ccc(C(F)(F)F)cc2)N2CC/C=C\C[C@@H](C2=O)N(C)C(=O)CN(C)C1=O [PP1131]	A (a compound having 10 or more and less than 20 is denoted as A)	B (a compound having 3 or more and less than 10 is denoted as B)
